We go through one compound from patent US9145425B2, “Cephem compound having catechol group” (SHIONOGI & CO., LTD., priority 2010, dated 2015).

The subject of assay [1] is P. aeruginosa SR27001 (multi-resistant Pseudomonas aeruginosa; IMP-1 producing strain). Nature of the assay: Antimicrobial activity in vivo, mouse intraperitoneal infection, ED50 from survival rate. As to conditions: Mice (ICR type, male, 5 weeks), intravenous administration in twice from 1.5 h after infection, survival rate after 7 days. The protocol:
The antimicrobial activity in vivo of the present compound (I) was determined.
Mice (ICR type, male, 5 weeks) were inoculated intraperitoneally with P. aeruginosa SR27001 (multi-resistant Pseudomonas aeruginosa; IMP-1 producing strain) to raise infection. One and half hours after, mice were treated with intravenious administration in twice, and then the ED50 value was calculated based on the survival rate after 7 days.

Assay [2] has the same test system. In words: Antimicrobial activity in vitro (MIC) of the in vivo test compounds. It is filed as cell-based. As to conditions: addition of Tf. The protocol:
Measurement of Minimum Inhibitory Concentration (MIC, μg/ml) was conducted according to the standard method of the Japan Society for Chemotherapy and the amount of bacteria for inoculation was 1000 cfu/spot, and sensitive disc medium was used as the test medium, and conducted using agar plate incubation.
The antimicrobial activity in vitro (MIC) of the test compounds was determined according to the method of Experimental Example 1.

Assay [3] concerns Pseudomonas aeruginosa SR24. Nature of the assay: Minimum Inhibitory Concentration (MIC), agar plate incubation, Japan Society for Chemotherapy standard method. It is filed as cell-based. As to conditions: Pseudomonas aeruginosa SR24; no enzyme, ceftazidime sensitive strain; 1000 cfu/spot; sensitive disc medium. The procedure, abridged:
(§1)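 MIC (μg/ml) by agar plate method per Japan Society for Chemotherapy standard. Inoculum 1000 cfu/spot on sensitive disc medium.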

Assay [4] has as its system Klebsiella pneumoniae ATCC 700603. The assay is described as above. It is filed as cell-based. As to conditions: Klebsiella pneumoniae ATCC 700603; SHV-18, ESBL producer strain; 1000 cfu/spot; sensitive disc medium. The procedure, abridged:
as §1

For assay [5], the system named is Acinetobacter baumannii SR24396. Described as above. Type of assay: cell-based. As to conditions: Acinetobacter baumannii SR24396; no enzyme; 1000 cfu/spot; sensitive disc medium. In short, it runs like this:
as §1

In assay [6] the test system is Pseudomonas aeruginosa SR27060. The assay is described as above. Type of assay: cell-based. As to conditions: Pseudomonas aeruginosa SR27060; IMP-1, MBL producer strain (carbapenem resistant strain); 1000 cfu/spot; sensitive disc medium. In short, it runs like this:
as §1

Assay [7] deals with Stenotrophomonas maltophilia SR21970. Nature of the assay: Minimum Inhibitory Concentration (MIC), agar plate incubation, CLSI method. Type of assay: cell-based. As to conditions: Stenotrophomonas maltophilia SR21970; L-1, MBL producer strain (carbapenem resistant strain); 10000 cfu/spot; Mueller-Hinton agar medium. In short, it runs like this: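 MIC against Stenotrophomonas maltophilia SR21970 determined by CLSI agar dilution on Mueller-Hinton agar, inoculum 10000 cfu/spot. Values in μg/ml.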

Usually ED50 stands for the dose at which the effect has come halfway, by size or by number of responders. A word on the MIC: it is the least concentration at which growth counts as inhibited. Lower therefore signals inhibition by little substance. In assay [1], `CCC(ON=C(C(=O)NC1C(=O)N2C(C(=O)[O-])=C(C[N+]34CCC(CC3)N(C(=O)c3ccc(O)c(O)c3Cl)CC4)CSC12)c1csc(N)n1)C(=O)[O-].[Na+]` (stereo not shown) [Compound I-25] yielded an ED50 of 3.34 mg/kg. Also, the MIC in assay [2] worked out at 1 µg/mL. The “Minimum Inhibitory Concentration (MIC)” value in assay [3] was 0.125 µg/mL; in assay [4], 0.25 µg/mL; in assay [5], 0.125 µg/mL; in assay [6] it was 0.5 µg/mL; in assay [7] it was 1 µg/mL.
